# Molecular target: T1, cytochrome P450 2C19 (Homo sapiens, UniProt P33261)
# T1 construct: isoenzyme activity in human liver microsomes using conventional sample substrates and HPLC-MS/MS detection; from tissue; host or cells: human liver microsomes
# Experiment: Cytochrome inhibition in human liver microsomes, 2C19
# Type: in vitro ADME
# Settings: substrate Mephenytoin, read-out: IC50, 2C19 (PSMA-Abi)
# Source text: To assess the effect of drugs on liver cytochrome activity in drug development, test systems with recombinant enzymes and fluorescent substrates as well as microsomes with metabolic substrates and HPLC-MS/MS analysis were used. The present study aimed to investigate the effect of targeted delivery drugs specific to malignant prostate cells on cytochrome P450 (CYP450) isoenzyme activity in human liver microsomes using conventional sample substrates and HPLC-MS/MS detection. Detailed methodological parameters are described in the Supplementary Material.
# T1 sequence (P33261 whole entry): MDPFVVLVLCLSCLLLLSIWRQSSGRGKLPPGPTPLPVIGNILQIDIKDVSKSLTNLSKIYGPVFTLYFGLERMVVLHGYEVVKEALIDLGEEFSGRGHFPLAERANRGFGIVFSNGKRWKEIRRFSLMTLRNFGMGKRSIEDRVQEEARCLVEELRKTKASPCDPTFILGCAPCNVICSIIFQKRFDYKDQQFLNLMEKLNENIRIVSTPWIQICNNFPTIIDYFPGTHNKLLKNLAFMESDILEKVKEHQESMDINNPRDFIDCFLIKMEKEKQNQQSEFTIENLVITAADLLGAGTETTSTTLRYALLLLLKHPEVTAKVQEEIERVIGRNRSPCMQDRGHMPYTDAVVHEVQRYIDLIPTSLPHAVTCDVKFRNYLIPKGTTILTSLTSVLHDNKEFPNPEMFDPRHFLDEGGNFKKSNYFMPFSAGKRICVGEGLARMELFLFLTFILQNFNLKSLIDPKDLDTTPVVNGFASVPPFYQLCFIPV
compound,measurement,value
C[C@]12CC[C@H](OC(=O)CCCc3cn(CCCNC(=O)[C@H](Cc4ccc(O)cc4)NC(=O)[C@H](Cc4ccccc4)NC(=O)CCC(=O)NCCCCCC(=O)N(CCCC[C@H](NC(=O)N[C@@H](CCC(=O)O)C(=O)O)C(=O)O)Cc4cccc(Cl)c4)nn3)CC1=CC[C@@H]1[C@@H]2CC[C@]2(C)C(c3cccnc3)=CC[C@@H]12 [PSMA-Abi],IC50,> 25 µM

# From paper PMC9783881, “Synthesis and Preclinical Evaluation of Small-Molecule Prostate-Specific Membrane Antigen-Targeted Abiraterone Conjugate” (Molecules, 2022)
